Here are results for one molecule from patent US20070254928A1, “Use of Roflumilast for the Prophylaxis or Treatment of Emphysema” (Altana Pharma AG, priority 2004, published 2007).

Marks after values point to notes of the source that are not given here.

Holding throughout (format): in vivo
Series [1] has as its system cigarette smoke induced emphysema in mice (C57BI/6J). In words: Chronic model of cigarette smoke exposure in mice: lung desmosine content by HPLC. The conditions noted are these: for Desmosine (lung content): 7 months, mean ± SEM. Here is the method:
(§1) Effects of ROFLUMILAST in an Chronic Model of Cigarette Smoke Exposure in Mice
(§2) Eighty 6 week old male mice of the strain C57BI/6J (supplied Harlan-Italy, Udine, Italy) were used in this study. The mice were housed in groups of 7 to 10 in macrolon cages. Room temperature was kept at 22° to 24° C.; and relative humidity at 40 to 50%; food and water were supplied ad libitum. All animal experimentation was approved by the Local Ethical Committee of the University of Siena.
(§3) ROFLUMILAST was given p.o. by gavage in a volume of 10 μl suspension/g body weight 60 min prior to either air or smoke exposure.
(§4) The methodology for chronic smoke exposure has been previously described in detail (Cavarra et al; Am J Respir Crit Care Med 2001; Vol 164, pp 886-890). Briefly, mice were exposed to either the smoke of 3 cigarettes/day (commercial Virginia filter cigarettes: 12 mg of tar and 0.9 mg of nicotine), 5 days/week or to room air (controls) for 7 months, in especially designed macrolon cages (Tecniplast, Buguggiate, Italy). These cages (42.5×26.6×19 cm) are equipped with a disposable filter cover which enables the air to flow out of the cages and thus to be continuously renewed. The smoke was produced by the burning of a cigarette and was introduced into the chamber with the airflow generated by a mechanical ventilator (7025 Rodent Ventilator, Ugo Basile, Biological Research Instruments, Comerio, Italy), at a rate of 33 ml /min. A second mechanical ventilator was used to provide room air for dilution (1:8) of the smoke-stream. With this methodology the mice were exposed to the smoke originated by three cigarettes once a day for the duration of 90 min. In a pilot study, the efficiency of the smoke delivery system was tested in 12 mice by measuring blood HbCO by co-oxymetry.
Lung desmosine concentration was determined by High Pressure Liquid Chromatography (HPLC) essentially according to Cumiskey et al. (J Chromatogr B 1995, Vol 668, pp 199-207). Briefly, lung samples were homogenized in 5% TCA (1:9, w:v) and centrifuged for 10 min. at 4000 g at 4° C. The pellet was then washed twice with distilled water and hydrolyzed for 16 h at 130° C. in 6 N HCl.
After hydrolysis, the samples were centrifuged for 10 min at 2000 g and filtered through a FP 030/3 0.2 μm filter (Schleicher & Schuell). Aliquots (0.5 ml) of samples were desiccated under liquid nitrogen and then suspended in 0.6 ml 0.1 M sodium phosphate, pH 3.73.
The HPLC apparatus consisted of a single pump (Pro-Star 210, Varian) delivering isocratic mobile phase, of which 80% was 0.1 M dibasic sodium phosphate adjusted to pH 3.75 with phosphoric acid; the remaining 20% was acetonitrile. Sodium dodecyl sulphate (SDS) was added to a final concentration of 10 mM. The pH was re-adjusted after the addition of acetonitrile and SDS. The flow rate was 0.8 ml/min through a C18 (reverse phase MSORV 100A, Varian). Injection volumes of 100 μl of test samples diluted in 0.1 M sodium phosphate buffer, pH 3.75 was used to detect desmosine concentration. Detection of desmosine was by absorbance at 275 nm. Peak purity was checked with a Pro-Star 330 photodiode array detector (Varian) scanning from 200 to 400 nm. Isodesmosine eluted at approx. 9 min, and desmosine approx. at 12 min. Peak height, appopriate external calibration curves and internal standards were used to quantitate desmosine in unknown samples. Desmosine standards were from Elastin Co. (USA).
(§5) All data were analyzed using GraphPad Prism software (GraphPad Software, San Diego, Calif., USA). For each parameter the values of the individual animals were averaged and the SEM was calculated. The significance of the differences was calculated using parametric one-way analysis of variance (ANOVA) with subsequent Bonferroni's multiple comparison post-test for selected pairs. A p value of <0.05 was considered significant.

Series [2] shares this test system. In words: Chronic model of cigarette smoke exposure in mice: morphometric assessment of emphysema (Lm, ISA). The following applies: for Lm (mean linear intercept) / ISA (internal surface area of the lung): 7 months, mean ± SEM; for ISA (internal surface area of the lung): ISA=4VL/Lm; for Inhibition of emphysema formation (Lm and ISA), in words: smoke-exposed. Here is the method: as §1, §2, §3, §4
Seven months after chronic exposure to room air or cigarette smoke (24 h after last exposure), 5 to 12 animals of each group, were anesthetized with ether and then exsanguinated by severing the abdominal aorta. The lungs were excised and fixed intratracheally with buffered formalin (5%) at a constant pressure of 20 cm H2O for at least 24 hours. Post-fixation lung volume (VL) was measured by water displacement. All lungs were then dehydrated, cleared in toluene and embedded under vacuum in paraffin. Two 7-μm transversal sections were made and stained with hematoxylin-eosin and/or periodic acid-Schiff (PAS). Two pathologists blinded to the exposure protocol carried out the morphological and morphometrical evaluation.
Morphometric assessment of emphysema included determination of the average inter-alveolar distance (mean linear intercept: Lm) and internal surface area estimated by the Lm method at postfixation lung volume. For the determination of the Lm for each pair of lungs, 40 histological fields were evaluated both vertically and horizontally. Examination of these numbers of fields meant that practically the entire lung area was evaluated. Internal surface area of the lung (ISA) was calculated by according to the formula: ISA=4VL/Lm.
as §5

In series [3] the test system is C57BI/6J mice. In words: Chronic model of cigarette smoke exposure in mice: mortality. The following applies: all groups, ROFLUMILAST 1 or 5 mg/kg p.o., 7 months. As for the experimental part:
as §2, §3
as §4, with “A second mechanical ventilator was used to provide room air for dilution (1:8) of the smoke-stream. With this methodology the mice were exposed to the smoke originated by three cigarettes once a day for the duration of 90 min. In a pilot study, the efficiency of the smoke delivery system was tested in 12 mice by measuring blood HbCO by co-oxymetry.” left out

The mark [4] stands for this setting: air exposure, ROFLUMILAST 5 mg/kg p.o.
The mark [5] stands for this setting: chronic model of cigarette smoke induced emphysema in mice, dose not given.
[6] abbreviates: cigarette smoke exposure, ROFLUMILAST 1 mg/kg p.o.
Where [7] appears, read: cigarette smoke exposure, ROFLUMILAST 5 mg/kg p.o.

On to `O=C(Nc1c(Cl)cncc1Cl)c1ccc(OC(F)F)c(OCC2CC2)c1` [ROFLUMILAST, 3-cyclopropylmethoxy-4-difluoro-methoxy-N-(3,5-dichloropyrid-4-yl)benzamide], for which the figures for the “Desmosine (lung content)” value in series [1] (setting [4]), in series [1] (setting [6]) and in series [1] (setting [7]) were 2.91 ± 0.08 μg/lung, 2.45 ± 0.11 μg/lung and 2.98 ± 0.10 μg/lung, respectively. The “Effect on drop of the desmosine content in the lung, in words” value in series [1] (setting [5]) is listed as “can prevent the drop of the desmosine content in the lung”. For the same molecule, the “Lung desmosine content compared to air-exposed, in words” value in series [1] (smoke-exposed, ROFLUMILAST 1 mg/kg) is reported as “significantly lower lung desmosine content”. In series [1] (smoke-exposed, ROFLUMILAST 5 mg/kg), the “Lung desmosine content compared to air-exposure, in words” value is given as “Unchanged lung desmosine content”. Further, the results for the “Lm (mean linear intercept)” value in series [2] (setting [4]), in series [2] (setting [6]) and in series [2] (setting [7]) were 33.48 ± 0.36 μm, 40.79 ± 0.87 μm and 34.28 ± 0.31 μm, respectively. Besides, the figures for the “ISA (internal surface area of the lung)” value in series [2] (setting [4]), in series [2] (setting [6]) and in series [2] (setting [7]) were 1342.70 ± 23.39## cm^2, 1079.78 ± 35.61** cm^2 and 1292.21 ± 29.63# cm^2, respectively. Moreover, in series [2] (setting [5]), the “Effect on increase of Lm, in words” value is on record as “can prevent the increase of Lm”. In addition, the “Inhibition of emphysema formation (Lm and ISA), in words” value is given as “unable to inhibit emphysema formation” in series [2] (ROFLUMILAST 1 mg/kg) and “gross inhibition of emphysema formation” in series [2] (ROFLUMILAST 5 mg/kg). The Mortality entry in series [3] is given as “No animal died”.
